# Experimental data as given in US7029713B2, “Peptide extract of lupine and pharmaceutical or cosmetic or nutritional composition comprising the same” (Laboratoires Pharmascience, priority 1999, dated 2006).
# Legend:
# [1] = target: T1, purified human MMP-2 (Homo sapiens, UniProt P08253); experiment: Anti-MMP-2 activity, DQ-gelatin fluorimetry; type: biochemical
# T1 construct: purchased BOEHRINGER MANNHEIM; host or cells: purified from human fibrosarcoma (natural, not recombinant)
# T1 sequence (P08253 110-660): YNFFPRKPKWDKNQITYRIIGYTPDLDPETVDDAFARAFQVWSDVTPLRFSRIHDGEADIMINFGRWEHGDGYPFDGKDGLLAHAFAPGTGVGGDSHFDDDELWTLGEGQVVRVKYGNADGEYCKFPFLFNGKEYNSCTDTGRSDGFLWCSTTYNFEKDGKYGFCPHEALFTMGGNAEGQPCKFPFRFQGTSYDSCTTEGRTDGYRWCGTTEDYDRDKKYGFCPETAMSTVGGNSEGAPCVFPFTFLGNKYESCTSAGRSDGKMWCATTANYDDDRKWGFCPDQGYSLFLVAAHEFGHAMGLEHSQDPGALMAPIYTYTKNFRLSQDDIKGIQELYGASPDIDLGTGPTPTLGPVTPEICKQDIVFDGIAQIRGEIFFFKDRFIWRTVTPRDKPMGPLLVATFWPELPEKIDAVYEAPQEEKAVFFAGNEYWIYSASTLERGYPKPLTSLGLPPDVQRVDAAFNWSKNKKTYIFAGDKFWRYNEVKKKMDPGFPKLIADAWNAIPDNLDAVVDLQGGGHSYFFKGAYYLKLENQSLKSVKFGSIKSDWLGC
# Experimental: (§1) The anti-MMP-2 and anti-MMP-9 activity of the test products was measured in vitro in a biochemical model of the screening type, based on the use of a purified human MMP-2 and of a recombinant human MMP-9 and of the substrate for the latter, gelatin conjugated to fluorescein (EnzChek™ gelatinase/collagenase kit, MOLECULAR PROBES).
# The MMP-2 purified from human fibrosarcoma came from BOEHRINGER MANNHEIM.
# (§2) The DQ-gelatin purified from porcine skin and conjugated to fluorescein was supplied in the EnzChek™ gelatinase/collagenase kit (MOLECULAR PROBES).
# The reaction buffer for studying the activity of MMP-2 (RBf1) consisted of 50 mM of Tris-HCl, 0.05% (w/v) of Triton X100 and 5 mM of CaCl2, pH 7.5.
# (§3) 1,10-Phenanthroline was solubilized in the reaction buffers RBf1 and RBf2. It was tested at 8 and 80 μg/ml.
# (§4) Peptide extracts A, B and C were solubilized in the reaction buffers RBf1 and RBf2. They were tested at 0.01; 0.1 and 1% (w/v). […]
# (§5) After 24 hours, the signal corresponding to the degradation of the DQ-gelatin was measured by fluorimetry (excitation: 485 nm and emission: 595 nm) For each sample, the value obtained for the “samples without enzyme” was subtracted.
# (§6) The results were expressed as fluorescence units per sample and as percentage variation relative to the control group. […]
# [2] = target: T2, recombinant human MMP-9 (Homo sapiens, UniProt P14780); experiment: Anti-MMP-9 activity, DQ-gelatin fluorimetry; type: biochemical
# T2 construct: purchased R&D SYSTEMS
# Experimental: as §1
# The recombinant human MMP-9 came from R&D SYSTEMS.
# as §2
# The reaction buffer for studying the activity of MMP-9 (RBf2) consisted of 50 mM of Tris-HCl, 0.05% (w/v) of Brij 35 and 5 mM of CaCl2, pH 7.4.
# as §3, §4, §5, §6
# [3] = test system: MMP-1 in human fibroblasts irradiated with UVA rays; experiment: Amount of MMP-1 secreted by UVA-irradiated human dermal fibroblasts (ELISA); type: cell-based; conditions: Fibroblast, light or radiation study, 80 μg/ml, read-out: inhibition of the secretion of MMP-1 by the irradiated fibroblasts
# Experimental: (§7) The study was carried out on human dermal fibroblasts in monolayer culture. The cells were pre-incubated for 1 hour at 37° C. in the presence of the reference products and of the test product. Then, the cells were irradiated with a single dose of 10 J/cm^2 of UVA, in the presence of the product to be tested and of the reference products.
# (§8) Immediately after irradiation, the cells were incubated for 48 h at 37° C., still in the presence of the product to be tested and of the reference products.
# (§9) The various MMPs are tested in the culture media using specific ELISA kits (Amersham).
# (§10) 1,10-Phenanthroline, which is a nonspecific inhibitor of MMPs, and was tested at 80 μg/ml, was used as a reference product.
# (§11) A 10 μg/ml retinoic acid+10 ng/ml EGF mixture was used for its abilities to induce TIMP1 (TIMP1, Tissue Inhibitor of MMP, physiological inhibitor of MMPs).
# (§12) A stock solution containing 10% (w/v) of lupin peptides was prepared in deionized water. Using this solution, dilutions were prepared in the fibroblast culture medium. The peptide extract of lupin was tested at 0.5; 1 and 2% (v/v).
# (§13) Irradiated and nonirradiated control cultures were incubated in parallel, in the absence of the reference products and of the test product. […]
# (§14) They are given in the table below and the results are expressed as % relative to the “irradiated cells” group.
# [4] = test system: MMP-9 in human fibroblasts irradiated with UVA rays; experiment: Amount of MMP-9 secreted by UVA-irradiated human dermal fibroblasts (ELISA); type: cell-based; conditions: Fibroblast, light or radiation study, 80 μg/ml, read-out: inhibition of the secretion of MMP-9 by the irradiated fibroblasts
# Experimental: as §7, §8, §9, §10, §11, §12, §13, §14
# [5] = test system: MMP-3 in human fibroblasts irradiated with UVA rays; experiment: Amount of MMP-3 secreted by UVA-irradiated human dermal fibroblasts (ELISA); type: cell-based; conditions: Fibroblast, light or radiation study, 80 μg/ml, read-out: inhibition of the secretion of MMP-3 by the irradiated fibroblasts
# Experimental: as §7, §8, §9, §10, §11, §12, §13, §14
# [6] = test system: purified collagenase (type III, fraction A); experiment: Anticollagenase activity in organotypic model of human skin sections (Masson trichrome, morphology and image analysis); type: biochemical; parameters: key to Enzymatic digestion (morphological observation): 0: zero enzymatic digestion; +: weak enzymatic digestion; ++: average enzymatic digestion; +++: strong enzymatic digestion; conditions: phosphoramidon 10^−3 M; collagenase 50 IU/ml, 3 hours 37° C.
# Experimental: The anticollagenase activity of a test product can be studied in vitro in an organotypic model of human skin. The principle of the test is as follows: application of purified collagenase to sections is accompanied by degradation of the endogenous collagen fibers. The collagen fibers are then stained with Masson trichrome. The digestion of the endogenous collagen fibers by the purified collagenase is evaluated qualitatively by morphological observation and quantitatively by image analysis. A product which has anticollagenase activity will partially or totally preserve the integrity of the collagen fibers placed in the presence of the enzyme.
# Three dilutions were tested: 0.01; 0.1 and 1% (v/v). […]
# After incubation, the sections were rinsed with the incubation medium and stained with Masson trichrome. The activity of the enzyme in the presence and absence of the extract, of the ethanol or of the reference product was evaluated by microscopic observation and scored according to the following scheme:
# The activity of the collagenase in the presence and absence of the test products, of the ethanol or of the reference product was evaluated by image analysis. […] The results were expressed as a percentage of intact collagen fibers per optical field. […]
# For the reference product (directly taken up in the vehicle), the percentage inhibition is calculated using the following formula: […]
# T2 sequence (P14780 94-707): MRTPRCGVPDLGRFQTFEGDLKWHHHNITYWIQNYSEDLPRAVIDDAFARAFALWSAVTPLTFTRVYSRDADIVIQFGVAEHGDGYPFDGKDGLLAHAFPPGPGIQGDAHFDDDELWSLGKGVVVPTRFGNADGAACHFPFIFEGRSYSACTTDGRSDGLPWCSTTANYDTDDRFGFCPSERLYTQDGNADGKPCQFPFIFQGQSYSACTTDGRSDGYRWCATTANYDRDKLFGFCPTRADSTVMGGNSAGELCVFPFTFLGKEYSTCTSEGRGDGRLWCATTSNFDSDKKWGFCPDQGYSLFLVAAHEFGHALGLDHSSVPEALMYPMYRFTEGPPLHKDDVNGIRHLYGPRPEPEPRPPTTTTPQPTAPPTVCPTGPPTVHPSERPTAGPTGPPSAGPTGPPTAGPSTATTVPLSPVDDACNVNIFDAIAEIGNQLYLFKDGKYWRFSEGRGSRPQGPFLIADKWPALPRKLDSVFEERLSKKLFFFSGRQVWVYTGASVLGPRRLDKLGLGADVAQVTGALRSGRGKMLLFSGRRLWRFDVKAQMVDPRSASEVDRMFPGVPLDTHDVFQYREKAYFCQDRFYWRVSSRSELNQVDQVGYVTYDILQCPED
smiles,measurement,setting,value
"c1cnc2c(c1)ccc1cccnc12 [1,10-phenanthroline]",inhibition at 8 µg/mL,[1]; 8 μg/ml,32%
same,inhibition at 80 µg/mL,[1]; 80 μg/ml,73%
same,inhibition at 8 µg/mL,[2]; 8 μg/ml,80%
same,inhibition at 80 µg/mL,[2]; 80 μg/ml,76%
same,inhibition at 80 µg/mL,[3],99%
same,inhibition at 80 µg/mL,[4],92%
same,inhibition at 80 µg/mL,[5],97%
CC(C)C[C@H](NP(=O)(O)O[C@@H]1O[C@@H](C)[C@H](O)[C@@H](O)[C@H]1O)C(=O)N[C@@H](Cc1c[nH]c2ccccc12)C(=O)O [Phosphoramidon],% inhibition of the collagenase activity (image analysis),[6],16%
same,Enzymatic digestion (morphological observation),[6],+
